Data from patent publication US20210046190A1, “ANTICANCER AGENT” (OSAKA UNIVERSITY, priority 2018, published 2021).
In brackets after ≈: the same amount, converted by molar mass.

Tests used:
HepG2 cells [1] = test: Intracellular reactive oxygen species (ROS) levels, CellROX flow cytometry; type: cell-based; details: 100 μg/ml, 6 hours
Method: CellROX Deep Red Reagent was purchased from Invitrogen (Carlsbad, Calif.), and intracellular ROS levels were measured. […] The treated cells were cultured at 37° C. for 6 hours, and the cell concentration of the sample was adjusted to 5×10^3 cells/ml. Then, the cells were cultured with a CellROX Deep Red Reagent (1 mM, Invitrogen) at 37° C. for 30 minutes while protected from light. Furthermore, the cells were stained with SYTOX Blue Dead Cell Stain (5 mM, Invitrogen), and counted by flow cytometry after dead cell exclusion. Flow cytometric analysis was performed using a Canto II flow cytometer (BD Biosciences).

PLC = PLC hepatocellular carcinoma cell line; cited from earlier work
HepG2 cells [2] = test: Apoptosis assay, Annexin V-FITC/PI flow cytometry; type: cell-based; details: 100 μg/ml
Method: The cell apoptosis assay was performed by flow cytometry using an Annexin V-FITC Apoptosis Detection Kit (BioVision, Mountain View, Calif.) according to the manufacturer's protocol. For flow cytometric analysis, HepG2 cells (5×10^5 cells) were trypsinized, gently washed twice with PBS, and subsequently resuspended in 500 μL of 1× binding buffer. The cells were stained by adding 5 μL of Annexin V-FITC and propidium iodide (PI) in the dark at room temperature for 5 minutes. The green fluorescence of FITC-bound Annexin V and the red fluorescence of DNA-bound PI were measured using a Canto II flow cytometer (BD Biosciences).

[3] = 30 mg once a day in oral administration, acute leukemia; cited from earlier work
HuH7 = HuH7 hepatocellular carcinoma cell line; cited from earlier work

Question: Which “intracellular ROS levels” value (HepG2 cells [1]) does the source give for `CC(C)C[C@H](NC(=O)[C@@H](O)[C@H](N)Cc1ccccc1)C(=O)O` [ubenimex, (2S)-2-[(2S,3R)-3-amino-2-hydroxy-4-phenylbutanoylamino]-4-methylpentanoic acid] here?
Answer: The value was “has an effect of enhancing intracellular ROS levels”.

Question: And the IC30 (PLC)?
Answer: Its IC30 is 498.8 µg/mL (≈ 1620 µM).

Question: And the apoptosis (HepG2 cells [2])?
Answer: Its apoptosis is “has an effect of inducing apoptosis”.

Question: And the maximum blood concentration [3]?
Answer: The maximum blood concentration was 2.21 µg/mL.

Question: And the IC30 (HuH7)?
Answer: The IC30 was 394.8 µg/mL (≈ 1280 µM).
